Consider one molecule from paper PMC9820345, “Metal Complexes of a 5-Nitro-8-Hydroxyquinoline-Proline Hybrid with Enhanced Water Solubility Targeting Multidrug Resistant Cancer Cells” (International Journal of Molecular Sciences, 2022).

For one data set, the target named is T1, OATP2B1 (Homo sapiens, UniProt O94956).
T1 construct: expressed in transfected cells; host or cells: A431 epidermoid carcinoma cells
T1 sequence (O94956 1-709): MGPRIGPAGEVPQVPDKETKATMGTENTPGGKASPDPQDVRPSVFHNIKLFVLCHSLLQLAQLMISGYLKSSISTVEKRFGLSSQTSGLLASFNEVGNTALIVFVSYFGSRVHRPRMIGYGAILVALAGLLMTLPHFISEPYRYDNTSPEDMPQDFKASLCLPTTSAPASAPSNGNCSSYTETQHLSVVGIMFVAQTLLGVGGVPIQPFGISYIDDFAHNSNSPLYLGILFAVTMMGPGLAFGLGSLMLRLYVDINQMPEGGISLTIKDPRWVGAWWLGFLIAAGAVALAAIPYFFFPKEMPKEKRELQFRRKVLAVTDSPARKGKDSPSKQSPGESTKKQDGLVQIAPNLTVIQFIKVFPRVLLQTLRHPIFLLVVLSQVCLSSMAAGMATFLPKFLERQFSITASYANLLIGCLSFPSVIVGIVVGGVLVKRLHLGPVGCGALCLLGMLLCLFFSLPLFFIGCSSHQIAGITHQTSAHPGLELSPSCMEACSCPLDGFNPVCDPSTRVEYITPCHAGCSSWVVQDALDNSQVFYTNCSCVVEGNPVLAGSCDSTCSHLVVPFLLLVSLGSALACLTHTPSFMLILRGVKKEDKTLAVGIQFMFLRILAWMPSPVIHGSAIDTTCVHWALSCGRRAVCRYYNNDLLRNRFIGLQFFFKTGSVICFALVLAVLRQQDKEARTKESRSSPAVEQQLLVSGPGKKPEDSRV
Kind of data set: OATP uptake assay, OATP2B1. The data set is classed as cell-based. The conditions noted are these: human, 20 μM. On the procedure:
Cell lines: A431 cells overexpressing OATP1B1 or OATP2B1, and their mock transfected controls were generated and characterized previously. The cell lines were cultured in DMEM (Gibco, Thermofisher Scientific, Waltham, MA, USA), supplemented with 10% fetal bovine serum, 2 mM L-glutamine, 100 μg/mL streptomycin, and 100 units/mL penicillin at 37 °C and 5% CO2.
OATP uptake assay: Prior to the experiment, A431 cells (8 × 10^4/well) were seeded on 96-well plates in 200 μL cell culture medium. After 16–24 h, the cells were washed with 200 μL PBS, three times and pre-incubated with 20–200 μM HQNO2-L-Pro, or buffer without HQNO2-L-Pro for 5 min at 37 °C in 50 μL HBSS (Hank’s Balanced Salt Solution, pH 7.4; OATP1B1) or uptake buffer (pH 5.5; OATP2B1 [63]). The reaction was started by the addition of disulfopyrene (6,8-dihydroxy-1,3-pyrenedisulfonic acid disodium salt, Sigma, Darmstadt, Germany) at a final concentration of 10 μM (OATP1B1) or pyranine (8-hydroxypyrene-1,3-pyrenetrisulfonic acid trisodium salt, Sigma, Darmstadt, Germany) at a final concentration of 20 μM (OATP2B1), and the cells were further incubated at 37 °C for 10 min (OATP1B1) or 15 min (OATP2B1). The reaction was stopped by removing the supernatant after which the cells were washed three times with ice-cold PBS. Fluorescence (in 200 μL PBS) was determined using an Enspire plate reader (PerkinElmer, Waltham, MA, USA) with excitation/emission wavelengths of 460/510 nm. OATP-dependent transport was calculated by subtracting fluorescence measured in mock transfected cells. Transport activity was calculated based on the fluorescence signal in the absence (100%) of HQNO2-L-Pro. Experiments were repeated in at least three biological replicates.

A short description of data set [1]: Formation constants of Zn(II) complexes by UV-vis spectrophotometric titrations. The data set is classed as physicochemical. The conditions noted are these: I = 0.1 M KCl, 25.0 °C, data evaluated at pH < 8. How it is done: Complexation of HQNO2-L-Pro with Zn(II) was studied by UV-vis and ^1H NMR spectroscopy (Figure 6). Comparing the UV-vis spectra recorded for the ligand in the presence and in the absence of Zn(II) with increasing pH, complex formation was evident from the UV-vis spectral changes at pH < ~8; however, in the basic pH range the spectra resembled more and more those of the free ligand. Based on the spectra recorded at pH < 8, formation constants for species [Zn(HL)]^+ and [Zn(HL)2] were determined (Table 2).
(§1) An Agilent Cary 8454 diode array spectrophotometer (Santa Clara, CA, USA) was used to obtain UV-vis spectra in the wavelength range 200–1000 nm, while spectra were recorded for the Fe(II)-containing samples using an Avantes (Avantes B.V., Apeldoorn, The Nederlands) AvaSpec-ULS2048CL-EVO spectrometer with an AvaLight-DHc light source and FDP-7UVIR200-2-VAR transmission dip probe. The titrations for the Fe(II)-containing samples were performed in a laboratory glove box (GP(Campus), Jacomex) (O2 content ≤ 1 ppm). The path length (ℓ) was 1 cm in most cases (the actual ℓ is always indicated in the legends of the figures). The concentrations of the ligands and complexes were between 40 and 200 µM, and 0.2 M KNO3 for the organometallic complexes or 0.1 M KCl for the Fe(II/III), Cu(II), and Zn(II) complexes were used to adjust the constant ionic strength. […]

A short description of data set [2]: Formation constants of Fe(III) complexes by UV-vis spectrophotometric titrations. In kind it is physicochemical. The conditions noted are these: I = 0.1 M KCl, 25.0 °C. On the procedure:
UV-vis titrations were performed to determine the formation (overall stability) constants (β) for the complexes of HQNO2-L-Pro formed with Fe(III) and Fe(II) ions (Figures S10 and S11). In the latter case, titrations were performed in a laboratory glove box. The calculations were complicated by the overlapping feature of the ligand bands and the charge transfer bands of the complexes. Based on the absorption spectra Figures S10a and S11a), formation of mono, bis, and tris complexes were found in both chemical systems; obtained constants are collected in Table 2. […] Based on the concentration distribution diagrams (see Figure S10b for Fe(III) and Figure S11b for Fe(II)), it can be concluded that the tris complexes are the dominant species at pH 7.4 in the case of Fe(III), while with Fe(II) both tris and bis-ligand species are formed under the conditions of the titrations.
as §1, with “strength. For HSA containing samples, complex concentrations were 50 µM, and 0.5, and 2 equiv. biomolecules were added for kinetic studies, respectively. For HSA model containing samples, complex concentrations were 50 µM, and the model concentrations were 0–150 µM and 0–500 µM, respectively, and the pH was 7.4 (PBS’). Spectra were always background and baseline corrected.” for “strength.”

A short description of data set [3]: Formation constants of Cu(II) complexes by UV-vis spectrophotometric titrations. In kind it is physicochemical. To be noted: I = 0.1 M KCl, 25.0 °C. How it is done: An Agilent Cary 8454 diode array spectrophotometer (Santa Clara, CA, USA) was used to obtain UV-vis spectra in the wavelength range 200–1000 nm, while spectra were recorded for the Fe(II)-containing samples using an Avantes (Avantes B.V., Apeldoorn, The Nederlands) AvaSpec-ULS2048CL-EVO spectrometer with an AvaLight-DHc light source and FDP-7UVIR200-2-VAR transmission dip probe. The titrations for the Fe(II)-containing samples were performed in a laboratory glove box (GP(Campus), Jacomex) (O2 content ≤ 1 ppm). The path length (ℓ) was 1 cm in most cases (the actual ℓ is always indicated in the legends of the figures). The concentrations of the ligands and complexes were between 40 and 200 µM, and 0.2 M KNO3 for the organometallic complexes or 0.1 M KCl for the Fe(II/III), Cu(II), and Zn(II) complexes were used to adjust the constant ionic strength. For HSA containing samples, complex concentrations were 50 µM, and 0.5, and 2 equiv. biomolecules were added for kinetic studies, respectively. For HSA model containing samples, complex concentrations were 50 µM, and the model concentrations were 0–150 µM and 0–500 µM, respectively, and the pH was 7.4 (PBS’). Spectra were always background and baseline corrected. The computer program HypSpec was used to obtain stability constants. Hydrolysis constants of the Fe(III), Fe(II), RuCym, and RhCp* species were included in the speciation models (see Table S4 with the data taken from References).

For the molecule `O=C(O)[C@@H]1CCCN1Cc1cc([N+](=O)[O-])c2cccnc2c1O` [HQNO2-L-Pro, (2S)-1-((8-hydroxy-5-nitroquinolin-7-yl)methyl)pyrrolidin-1-ium-2-carboxylate], the activity at 15 min, 10 µM on OATP2B1 (A431 cells overexpressing OATP2B1, pH 5.5, probe pyranine, 10 μM, absence of compound = 100%, n = 3, ± SD, read-out: transport activity % OATP2B1) was determined as 98.2 ± 5.5%. For the same molecule, the activity at 15 min, 100 µM at OATP2B1 (A431 cells overexpressing OATP2B1, pH 5.5, probe pyranine, 100 μM, absence of compound = 100%, n = 3, ± SD, read-out: transport activity % OATP2B1) amounted to 83.3 ± 9.7%. Also, the inhibition (usually the share of the control response that was lost under treatment) at 15 min, 100 µM on OATP2B1 (probe pyranine, at 100 μM, A431 cells overexpressing OATP2B1, pH 5.5, read-out: inhibition of OATP2B1 function) was below 20%. In addition, in data set [1], the “logβ [M(HL)2]” value was 33.71 ± 0.06 and the “logβ [M(HL)]” value is recorded as 17.36 ± 0.03. Moreover, in data set [2], the “logβ [M(HL)2]” value is 38.76 ± 0.03, the “logβ [M(HL)3]” value was 55.66 ± 0.03 and the “logβ [M(HL)]” value is 19.75 ± 0.03. In data set [3], the “logβ [M(HL)2]” value amounted to 38.60 ± 0.03, the “logβ [M(HL)(L)]” value is listed as 31.75 ± 0.03, the “logβ [M(HL)]” value came out at 19.40 ± 0.03 and the “logβ [M(L)2]” value is 22.99 ± 0.03. Besides, in data set [3], the “logβ [M(L)]” value was found to be 14.45 ± 0.03.
